The values that follow are results of earlier work, collected in patent US5336673A, “3-substituted cephem compounds” (priority 1990, dated 1994).

One series relates to Staphylococcus. The following applies: against Staphylococcus; cited from earlier work.
Another series relates to Pseudomonas. To be noted: against Pseudomonas, compared with other known cephalosporins; cited from earlier work.
The test system of a further series is enterobacteria. To be noted: against the enterobacteria; cited from earlier work.

Consider `CC(C)(O/N=C(\C(=O)N[C@@H]1C(=O)N2C(C(=O)[O-])=C(C[n+]3ccccc3)CS[C@H]12)c1csc(N)n1)C(=O)O` [Ceftazidime], for which the “antibacterial activity (in words)” value with Staphylococcus is reported as “poor antibacterial activity”; with Pseudomonas, “relatively stronger”; in the series on enterobacteria, “strong antibacterial activities”.
